Reference: article PMC9250534, “Synthesis and direct assay of large macrocycle diversities by combinatorial late-stage modification at picomole scale” (Nature Communications, 2022)

molecular target: MDM2 (Homo sapiens, UniProt Q00987); assay: MDM2 binding screen of Libraries 3 and 4: displacement of fluorescent probe F-M8 at 750 nM macrocycle; conditions: Panel b, Library 3: 63 scaffolds combinatorially acylated with 15 carboxylic acids at 30 picomole scale; displacement of fluorescent peptide probe; macrocycle 750 nM
Sequence (Q00987 whole entry): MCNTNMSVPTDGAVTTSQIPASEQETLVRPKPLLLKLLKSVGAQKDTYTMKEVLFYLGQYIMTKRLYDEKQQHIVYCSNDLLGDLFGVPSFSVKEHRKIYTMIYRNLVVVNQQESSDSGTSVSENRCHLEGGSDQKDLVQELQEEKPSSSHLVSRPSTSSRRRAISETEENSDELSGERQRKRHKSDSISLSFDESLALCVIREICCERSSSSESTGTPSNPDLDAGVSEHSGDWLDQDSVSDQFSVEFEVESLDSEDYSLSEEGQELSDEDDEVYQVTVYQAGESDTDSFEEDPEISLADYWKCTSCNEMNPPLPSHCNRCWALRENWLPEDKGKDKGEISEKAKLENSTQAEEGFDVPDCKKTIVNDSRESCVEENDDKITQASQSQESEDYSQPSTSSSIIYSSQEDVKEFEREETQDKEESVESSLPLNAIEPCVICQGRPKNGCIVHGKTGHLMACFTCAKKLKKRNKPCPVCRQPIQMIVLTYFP
Procedure: The cyclic peptide scaffolds required for Libraries 3 and 4 were synthesized as described for those used in Library 2. Due to the presence of many N-methylated amino acids which are more difficult to couple, 200 mM HOAt was applied together with HATU. The scaffolds were diluted to 2 mM in DMSO, and 15 nL were transferred using acoustic dispensing, followed by 15 nL DMSO containing carboxylic acids (40 mM, 20 equiv.), HBTU (40 mM) and DABCO (40 mM). After 6 h reaction at room temperature, 370 nL of DMSO was added to each well, followed by 5 μL of 100 mM Tris-Cl pH 7.4 containing 0.01% v/v Tween20, for quenching overnight.

fraction of fluorescent probe displaced | Structure (SMILES)
-0.00533 | O=C(/C=C/c1ccc(OCc2ccccc2)cc1)NC[C@H]1NC(=O)C2(CC2)CNC(=O)CCSSCCNC(=O)[C@@H](Cc2c[nH]c3ccccc23)NC1=O [X-Amcp-D-Dap-D-Trp + Acid 110]
-0.019 | O=C1CCSSCCNC(=O)[C@@H](Cc2c[nH]c3ccccc23)NC(=O)[C@@H](CNC(=O)c2cccc(Oc3ccccc3)c2)NC(=O)C2(CC2)CN1 [X-Amcp-D-Dap-D-Trp + Acid 111]
0.008 | O=C(CCS(=O)(=O)c1ccccc1)NC[C@H]1NC(=O)C2(CC2)CNC(=O)CCSSCCNC(=O)[C@@H](Cc2c[nH]c3ccccc23)NC1=O [X-Amcp-D-Dap-D-Trp + Acid 114]
-0.032 | Cn1cc(C[C@@H]2NC(=O)[C@@H](CNC(=O)c3ccc(Cl)s3)NC(=O)C3(CC3)CNC(=O)CCSSCCNC2=O)c2ccccc21 [X-Amcp-D-Dap-Me-Trp + Acid 14]
-0.00533 | Cn1cc(C[C@@H]2NC(=O)[C@@H](CNC(=O)c3ccc(Cl)cc3)NC(=O)C3(CC3)CNC(=O)CCSSCCNC2=O)c2ccccc21 [X-Amcp-D-Dap-Me-Trp + Acid 25]
-0.002 | Cn1cc(CC2NC(=O)C(CNC(=O)C3CC3c3ccccc3)NC(=O)C3(CC3)CNC(=O)CCSSCCNC2=O)c2ccccc21 [X-Amcp-D-Dap-Me-Trp + Acid 105]
0.018 | Cn1cc(C[C@@H]2NC(=O)[C@@H](CNC(=O)c3ccc4ccccc4c3)NC(=O)C3(CC3)CNC(=O)CCSSCCNC2=O)c2ccccc21 [X-Amcp-D-Dap-Me-Trp + Acid 107]
0.008 | Cn1cc(C[C@@H]2NC(=O)[C@@H](CNC(=O)/C=C/c3ccc(Cl)cc3)NC(=O)C3(CC3)CNC(=O)CCSSCCNC2=O)c2ccccc21 [X-Amcp-D-Dap-Me-Trp + Acid 108]
0.00133 | Cn1cc(C[C@@H]2NC(=O)[C@@H](CNC(=O)/C=C/c3ccc4ccccc4c3)NC(=O)C3(CC3)CNC(=O)CCSSCCNC2=O)c2ccccc21 [X-Amcp-D-Dap-Me-Trp + Acid 112]
0.015 | Cn1cc(C[C@@H]2NC(=O)[C@@H](CNC(=O)CCS(=O)(=O)c3ccccc3)NC(=O)C3(CC3)CNC(=O)CCSSCCNC2=O)c2ccccc21 [X-Amcp-D-Dap-Me-Trp + Acid 114]
0.015 | Cn1cc(C[C@@H]2NC(=O)[C@@H](CNC(=O)C3COc4ccccc4O3)NC(=O)C3(CC3)CNC(=O)CCSSCCNC2=O)c2ccccc21 (stereo partly drawn) [X-Amcp-D-Dap-Me-Trp + Acid 115]
0.008 | CN1C(=O)[C@@H](CNC(=O)c2ccc(Cl)s2)NC(=O)C2(CC2)CNC(=O)CCSSCCNC(=O)[C@@H]1Cc1c[nH]c2ccccc12 [X-Amcp-D-Dap-NMe-Trp + Acid 14]
-0.015 | CN1C(=O)[C@@H](CNC(=O)/C=C/c2ccncc2)NC(=O)C2(CC2)CNC(=O)CCSSCCNC(=O)[C@@H]1Cc1c[nH]c2ccccc12 [X-Amcp-D-Dap-NMe-Trp + Acid 106]
0.031 | CN1C(=O)[C@@H](CNC(=O)c2ccc3ccccc3c2)NC(=O)C2(CC2)CNC(=O)CCSSCCNC(=O)[C@@H]1Cc1c[nH]c2ccccc12 [X-Amcp-D-Dap-NMe-Trp + Acid 107]
0.00133 | CN1C(=O)[C@@H](CNC(=O)c2cccc(Oc3ccccc3)c2)NC(=O)C2(CC2)CNC(=O)CCSSCCNC(=O)[C@@H]1Cc1c[nH]c2ccccc12 [X-Amcp-D-Dap-NMe-Trp + Acid 111]
0.055 | CN1C(=O)[C@@H](CNC(=O)CCS(=O)(=O)c2ccccc2)NC(=O)C2(CC2)CNC(=O)CCSSCCNC(=O)[C@@H]1Cc1c[nH]c2ccccc12 [X-Amcp-D-Dap-NMe-Trp + Acid 114]

fraction of fluorescent probe displaced | Structure (SMILES)
-0.00533 | O=C1CCSSCCNC(=O)[C@H](Cc2c[nH]c3ccccc23)NC(=O)[C@@H](CNC(=O)c2ccc(Cl)s2)NC(=O)C2(CC2)CN1 [X-Amcp-D-Dap-Trp + Acid 14]
-0.00533 | O=C1CCSSCCNC(=O)[C@H](Cc2c[nH]c3ccccc23)NC(=O)[C@@H](CNC(=O)c2ccc(Cl)cc2)NC(=O)C2(CC2)CN1 [X-Amcp-D-Dap-Trp + Acid 25]
-0.015 | O=C1CCSSCCNC(=O)[C@H](Cc2c[nH]c3ccccc23)NC(=O)[C@@H](CNC(=O)C2CC2c2ccccc2)NC(=O)C2(CC2)CN1 (stereo partly drawn) [X-Amcp-D-Dap-Trp + Acid 105]
0.024 | O=C1CCSSCCNC(=O)[C@H](Cc2c[nH]c3ccccc23)NC(=O)[C@@H](CNC(=O)c2ccc3ccccc3c2)NC(=O)C2(CC2)CN1 [X-Amcp-D-Dap-Trp + Acid 107]
0.015 | O=C(/C=C/c1ccc(OCc2ccccc2)cc1)NC[C@H]1NC(=O)C2(CC2)CNC(=O)CCSSCCNC(=O)[C@H](Cc2c[nH]c3ccccc23)NC1=O [X-Amcp-D-Dap-Trp + Acid 110]
0.008 | O=C1CCSSCCNC(=O)[C@H](Cc2c[nH]c3ccccc23)NC(=O)[C@@H](CNC(=O)c2cccc(Oc3ccccc3)c2)NC(=O)C2(CC2)CN1 [X-Amcp-D-Dap-Trp + Acid 111]
-0.00533 | O=C(/C=C/c1ccc2ccccc2c1)NC[C@H]1NC(=O)C2(CC2)CNC(=O)CCSSCCNC(=O)[C@H](Cc2c[nH]c3ccccc23)NC1=O [X-Amcp-D-Dap-Trp + Acid 112]
-0.019 | O=C1CCSSCCNC(=O)[C@H](Cc2cccc3ccccc23)NC(=O)[C@H](CNC(=O)c2ccc(Cl)s2)NC(=O)C2(CC2)CN1 [X-Amcp-Dap-1-NaI + Acid 14]
0.008 | O=C1CCSSCCNC(=O)[C@H](Cc2cccc3ccccc23)NC(=O)[C@H](CNC(=O)c2ccc(Cl)cc2)NC(=O)C2(CC2)CN1 [X-Amcp-Dap-1-NaI + Acid 25]
-0.00844 | O=C1CCSSCCNC(=O)[C@H](Cc2cccc3ccccc23)NC(=O)[C@H](CNC(=O)c2ccc3ccccc3c2)NC(=O)C2(CC2)CN1 [X-Amcp-Dap-1-NaI + Acid 107]
0.00133 | O=C(/C=C/c1ccc(OCc2ccccc2)cc1)NC[C@@H]1NC(=O)C2(CC2)CNC(=O)CCSSCCNC(=O)[C@H](Cc2cccc3ccccc23)NC1=O [X-Amcp-Dap-1-NaI + Acid 110]
0.008 | O=C1CCSSCCNC(=O)[C@H](Cc2cccc3ccccc23)NC(=O)[C@H](CNC(=O)c2cccc(Oc3ccccc3)c2)NC(=O)C2(CC2)CN1 [X-Amcp-Dap-1-NaI + Acid 111]
-0.012 | CC(Oc1cccc(Cl)c1)C(=O)NC[C@@H]1NC(=O)C2(CC2)CNC(=O)CCSSCCNC(=O)[C@H](Cc2cccc3ccccc23)NC1=O (some centres unmarked) [X-Amcp-Dap-1-NaI + Acid 113]
-0.00533 | O=C(CCS(=O)(=O)c1ccccc1)NC[C@@H]1NC(=O)C2(CC2)CNC(=O)CCSSCCNC(=O)[C@H](Cc2cccc3ccccc23)NC1=O [X-Amcp-Dap-1-NaI + Acid 114]
0.00133 | O=C1CCSSCCNC(=O)[C@H](Cc2cccc3ccccc23)NC(=O)[C@H](CNC(=O)C2COc3ccccc3O2)NC(=O)C2(CC2)CN1 (some centres unmarked) [X-Amcp-Dap-1-NaI + Acid 115]
-0.034 | O=C1CCSSCCNC(=O)[C@H](Cc2ccc3ccccc3c2)NC(=O)[C@H](CNC(=O)C2CC2c2ccccc2)NC(=O)C2(CC2)CN1 (some centres unmarked) [X-Amcp-Dap-2-Nal + Acid 105]
